Measured values reported in ChEMBL document CHEMBL4619712, “Double-component diazeniumdiolate derivatives as anti-cancer agents” (Bioorg Med Chem, 2020).

What was measured:
CCRF-CEM [1] = assay: Cell cycle arrest in human CCRF-CEM cells assessed as accumulation of cells at G1/G0 phase at 8 uM after 72 hrs by RNAse/propidium iodide staining based flow cytometry (reference value: 28.3%); format: functional
CCRF-CEM [2] = assay: Induction of apoptosis in human CCRF-CEM cells assessed as late apoptotic cells at 8 uM after 72 hrs by Annexin V/propidium iodide staining based flow cytometry (reference value: 8.60%); format: functional
CCRF-CEM [3] = assay: Induction of apoptosis in human CCRF-CEM cells assessed as late apoptotic cells at 16 uM after 72 hrs by Annexin V/propidium iodide staining based flow cytometry (reference value: 8.60%); format: functional
CCRF-CEM [4] = assay: Cell cycle arrest in human CCRF-CEM cells assessed as accumulation of cells at sub G1 phase at 8 uM after 24 hrs by RNAse/propidium iodide staining based flow cytometry (reference value: 0.1%); format: functional
CCRF-CEM [5] = assay: Induction of apoptosis in human CCRF-CEM cells assessed as viable cells at 2 uM after 72 hrs by Annexin V/propidium iodide staining based flow cytometry (reference value: 90.4%); format: functional; conditions: read-out: Activity
CCRF-CEM [6] = assay: Induction of apoptosis in human CCRF-CEM cells assessed as early apoptotic cells at 8 uM after 24 hrs by Annexin V/propidium iodide staining based flow cytometry (reference value: 0.87%); format: functional
CCRF-CEM [7] = assay: Induction of apoptosis in human CCRF-CEM cells assessed as decrease in Bcl-2 level at 8 uM by Western blot analysis; format: functional, cell-based; conditions: TDE = time-dependent effect
CCRF-CEM [8] = assay: Cell cycle arrest in human CCRF-CEM cells assessed as accumulation of cells at S phase at 8 uM after 24 hrs by RNAse/propidium iodide staining based flow cytometry (reference value: 46%); format: functional
CCRF-CEM [9] = assay: Cell cycle arrest in human CCRF-CEM cells assessed as accumulation of cells at S phase at 8 uM after 48 hrs by RNAse/propidium iodide staining based flow cytometry (reference value: 46%); format: functional
CCRF-CEM [10] = assay: Induction of apoptosis in human CCRF-CEM cells assessed as viable cells at 4 uM after 72 hrs by Annexin V/propidium iodide staining based flow cytometry (reference value: 90.4%); format: functional; conditions: read-out: Activity
CCRF-CEM [11] = assay: Cell cycle arrest in human CCRF-CEM cells assessed as accumulation of cells at S phase at 8 uM after 72 hrs by RNAse/propidium iodide staining based flow cytometry (reference value: 46%); format: functional
CCRF-CEM [12] = assay: Induction of apoptosis in human CCRF-CEM cells assessed as necrotic cells at 8 uM after 8 hrs by Annexin V/propidium iodide staining based flow cytometry (reference value: 0.11%); format: functional
CCRF-CEM [13] = assay: (§1) Induction of apoptosis in human CCRF-CEM cells assessed as necrotic cells at 8 uM after 72 hrs by Annexin V/propidium iodide staining based flow cytometry (reference value: 0.11%); format: functional
CCRF-CEM [14] = assay: Induction of apoptosis in human CCRF-CEM cells assessed as viable cells at 8 uM after 72 hrs by Annexin V/propidium iodide staining based flow cytometry (reference value: 90.4%); format: functional; conditions: read-out: Activity
CCRF-CEM [15] = assay: Induction of apoptosis in human CCRF-CEM cells assessed as increase in Bax level after 72 hrs by western blot analysis; format: functional, cell-based
CCRF-CEM [16] = assay: Induction of apoptosis in human CCRF-CEM cells assessed as early apoptotic cells at 4 uM after 72 hrs by Annexin V/propidium iodide staining based flow cytometry (reference value: 0.87%); format: functional
CCRF-CEM [17] = assay: Induction of apoptosis in human CCRF-CEM cells assessed as late apoptotic cells at 8 uM after 48 hrs by Annexin V/propidium iodide staining based flow cytometry (reference value: 8.60%); format: functional
CCRF-CEM [18] = assay: Induction of apoptosis in human CCRF-CEM cells assessed as necrotic cells at 8 uM after 48 hrs by Annexin V/propidium iodide staining based flow cytometry (reference value: 0.11%); format: functional
CCRF-CEM [19] = assay: Cell cycle arrest in human CCRF-CEM cells assessed as accumulation of cells at sub G1 phase at 8 uM after 72 hrs by RNAse/propidium iodide staining based flow cytometry (reference value: 0.1%); format: functional
CCRF-CEM [20] = assay: as §1; format: functional; remark: listed apart in the source
CCRF-CEM [21] = assay: Induction of apoptosis in human CCRF-CEM cells assessed as necrotic cells at 8 uM after 24 hrs by Annexin V/propidium iodide staining based flow cytometry (reference value: 0.11%); format: functional
CCRF-CEM [22] = assay: Induction of apoptosis in human CCRF-CEM cells after 72 hrs by Annexin V-FITC/propidium iodide staining based flow cytometry; format: functional, cell-based
CCRF-CEM [23] = assay: Cell cycle arrest in human CCRF-CEM cells assessed as accumulation of cells at G2/M phase at 8 uM after 48 hrs by RNAse/propidium iodide staining based flow cytometry (reference value: 25.6%); format: functional
CCRF-CEM [24] = assay: Induction of apoptosis in human CCRF-CEM cells assessed as early apoptotic cells at 2 uM after 72 hrs by Annexin V/propidium iodide staining based flow cytometry (reference value: 0.87%); format: functional
CCRF-CEM [25] = assay: Induction of apoptosis in human CCRF-CEM cells assessed as viable cells at 8 uM after 8 hrs by Annexin V/propidium iodide staining based flow cytometry (reference value: 90.4%); format: functional; conditions: read-out: Activity
CCRF-CEM [26] = assay: Induction of apoptosis in human CCRF-CEM cells assessed as late apoptotic cells at 2 uM after 72 hrs by Annexin V/propidium iodide staining based flow cytometry (reference value: 8.60%); format: functional
CCRF-CEM [27] = assay: Induction of apoptosis in human CCRF-CEM cells assessed as early apoptotic cells at 16 uM after 72 hrs by Annexin V/propidium iodide staining based flow cytometry (reference value: 0.87%); format: functional

O=[N+]([O-])c1ccc(O/N=[N+](\[O-])N2CCC(CN3CCN(/[N+]([O-])=N/Oc4ccc([N+](=O)[O-])cc4[N+](=O)[O-])CC3)CC2)c([N+](=O)[O-])c1
Activity (CCRF-CEM [1]): 28.8%
Activity (CCRF-CEM [2]): 52.5%
Activity (CCRF-CEM [3]): 95.6%
Activity (CCRF-CEM [4]): 3.5%
viability at 2 µM (CCRF-CEM [5]): 87.5%
Activity (CCRF-CEM [6]): 7.03%
Activity (CCRF-CEM [7]): Tde
Activity (CCRF-CEM [8]): 26.3%
Activity (CCRF-CEM [9]): 8.2%
viability at 4 µM (CCRF-CEM [10]): 77.9%
Activity (CCRF-CEM [11]): 0%
Activity (CCRF-CEM [12]): 0.38%
Activity (CCRF-CEM [13]): 0.077%
viability at 8 µM (CCRF-CEM [14]): 42.5%
Activity (CCRF-CEM [15]): Dose-dependent effect
Activity (CCRF-CEM [16]): 3.53%
Activity (CCRF-CEM [17]): 49.8%
Activity (CCRF-CEM [18]): 0.058%
Activity (CCRF-CEM [19]): 7.5%
Activity (CCRF-CEM [20]): 0.11%
Activity (CCRF-CEM [21]): 0.072%
Activity (CCRF-CEM [22]): Dose-dependent effect
Activity (CCRF-CEM [23]): 54.5%
Activity (CCRF-CEM [24]): 3%
viability at 8 µM (CCRF-CEM [25]): 61.5%
Activity (CCRF-CEM [26]): 9.53%
Activity (CCRF-CEM [27]): 3.64%
